Data as given in patent publication US12162893B2 (Erasca, Inc., priority 2020, dated 2024).

Biological target: T1, mutant G12C K-RAS (Homo sapiens, UniProt P01116, G12C)
T1 construct: made in house; host or cells: E. coli BL21
Assay: covalent adduct formation (CAF) with mutant G12C K-RAS
Type: binding
Design: CAF: unit not given here
Settings: for % CAF @ 10 μM,1 h: Table 6
Description: Embodiments disclosed herein are further illustrated by the following examples in Tables 1-4 and the Examples hereinbelow. The Tables indicate the compound number, structure, the observed mass spectral molecular weight peak, and covalent adduct formation (CAF) with a mutant G12C K-RAS after 60 minutes at a concentration of 10 micromolar.

| Structure (SMILES) | % CAF @ 10 μM,1 h [%] | CAF (Table 3, Pyridone Core-Morpholine Unsubstituted, after 60 minutes at 10 micromolar) |
| --- | --- | --- |
| C=CC(=O)N1C[C@H](C)N(c2nc(=O)n3c4c(c(-c5ccc(F)cc5F)c(Cl)cc24)OC[C@@H]3CCCN2CCN(C)CC2)C[C@H]1C [Example 259, (3S)-7-((2S,5R)-4-acryloyl-2,5-dimethylpiperazin-1-yl)-9-chloro-10-(2,4-difluorophenyl)-3-(3-(4-methylpiperazin-1-yl)propyl)-2,3-dihydro-5H-[1,4]oxazino[2,3,4-ij]quinazolin-5-one] | 90.2 | – |
| C=CC(=O)N1C[C@H](C)N(c2nc(=O)n3c4c(c(-c5c(O)cccc5F)c(Cl)cc24)OC[C@@H]3Cn2ccnc2)C[C@H]1C (atropisomer, axis not shown) [Example 248, (3S)-3-((1H-imidazol-1-yl)methyl)-7-((2S,5R)-4-acryloyl-2,5-dimethylpiperazin-1-yl)-9-chloro-10-(2-fluoro-6-hydroxyphenyl)-2H-[1,4]oxazino[2,3,4-ij]quinazolin-5(3H)-one] | 2.3 | – |
| C=CC(=O)N1C[C@H](C)N(c2nc(=O)n3c4c(c(-c5ccc(F)cc5F)c(Cl)cc24)OC[C@@H]3CN2CCS(=O)(=O)CC2)C[C@H]1C [Example 269, (3S)-7-((2S,5R)-4-acryloyl-2,5-dimethylpiperazin-1-yl)-9-chloro-10-(2,4-difluorophenyl)-3-((1,1-dioxidothiomorpholino)methyl)-2H-[1,4]oxazino[2,3,4-ij]quinazolin-5(3H)-one] | 94.6 | – |
| C=CC(=O)N1C[C@H](C)N(c2nc(=O)n3c4c(c(-c5ccc(F)cc5F)c(Cl)cc24)OC[C@H]3CCCO)C[C@H]1C [Example 251, (3R)-7-((2S,5R)-4-acryloyl-2,5-dimethylpiperazin-1-yl)-9-chloro-10-(2,4-difluorophenyl)-3-(3-hydroxypropyl)-2,3-dihydro-5H-[1,4]oxazino[2,3,4-ij]quinazolin-5-one] | 85.3 | – |
| C=CC(=O)N1C[C@H](C)N(c2nc(=O)n3c4c(c(-c5c(C)ccc6[nH]nnc56)ccc24)OCC3)C[C@H]1C [Example 219, 7-((2S,5R)-4-acryloyl-2,5-dimethylpiperazin-1-yl)-10-(5-methyl-1H-benzo[d][1,2,3]triazol-4-yl)-2,3-dihydro-5H-[1,4]oxazino[2,3,4-ij]quinazolin-5-one] | 0 | – |
| C=CC(=O)N1C[C@H](C)N(c2cc(=O)n3c4c(c(-c5ccc(F)cc5F)c(Cl)cc24)OCC3)C[C@H]1C [Example 44, 7-((2S,5R)-4-acryloyl-2,5-dimethylpiperazin-1-yl)-9-chloro-10-(2,4-difluorophenyl)-2H-[1,4]oxazino[2,3,4-ij]quinolin-5(3H)-one] | – | 4.2 |
| C=CC(=O)N1C[C@H](C)N(c2nc(=O)n3c4c(c(-c5ccc(F)cc5F)c(Cl)cc24)OC[C@H]3CCCN2CCC(C(=O)NC3CC3)CC2)C[C@H]1C [Example 278] | 98.3 | – |
| C=CC(=O)N1C[C@H](C)N(c2nc(=O)n3c4c(c(-c5ccccc5C(F)(F)F)c(Cl)cc24)OCC3)C[C@H]1C [Example 197, 7-((2S,5R)-4-acryloyl-2,5-dimethylpiperazin-1-yl)-9-chloro-10-(2-(trifluoromethyl)phenyl)-2,3-dihydro-5H-[1,4]oxazino[2,3,4-ij]quinazolin-5-one] | 0 | – |
| C=CC(=O)N1C[C@H](C)N(c2nc(=O)n3c4c(c(-c5ccc(F)cc5F)c(Cl)cc24)OC[C@H]3CO[C@H]2CCN(C)C2)C[C@H]1C [Example 335, (3R)-7-((2S,5R)-4-acryloyl-2,5-dimethylpiperazin-1-yl)-9-chloro-10-(2,4-difluorophenyl)-3-((((S)-1-methylpyrrolidin-3-yl)oxy)methyl)-2H-[1,4]oxazino[2,3,4-ij]quinazolin-5(3H)-one] | 54.6 | – |
